Literature values as cited in patent publication US20200367542A1, “AROMA COMPOSITION” (SYMRISE AG, priority 2017, published 2020).

Columns and labels:
[1] = J. Chem. Senses 1979, 4(1), 35-47
[2] = purity>90%, in soft drinks

| Compound | Taste described in the publication [1] | Concentration to achieve a sweetness corresponding to a concentration of sucrose of 10% by weight [2] |
| --- | --- | --- |
| COc1ccc(CCC(=O)c2ccccc2O)cc1O [dihydrochalcone (2)] | intensively sweet tasting |  |
| COc1ccc(CCC(=O)c2c(O)cccc2O)cc1O [dihydrochalcone (3)] | tasteless |  |
| C=C1C[C@@]23CC[C@H]4[C@@](C)(CCC[C@@]4(C)C(=O)O[C@@H]4O[C@H](CO)[C@@H](O)[C@H](O)[C@H]4O)[C@@H]2CC[C@]1(O[C@@H]1O[C@H](CO)[C@@H](O)[C@H](O[C@@H]2O[C@H](CO)[C@@H](O)[C@H](O)[C@H]2O)[C@H]1O[C@@H]1O[C@H](CO)[C@@H](O)[C@H](O)[C@H]1O)C3 [rebaudioside A] |  | 400-600 ppm |
